Reference: patent publication US6521635B1, “Inhibition of MXR transport by acridine derivatives” (priority 2000, dated 2003)
Read-outs that look alike come from different tables or passages of the source.

How the values were obtained:
[1] = tested on: S1-M1-80 cells expressing MXR; assay: In vitro cytotoxicity assay (sulforhodamine B staining); type: cell-based, human; conditions: for IC50: Homo sapiens, S1-M1-80, 96 h; for RR (relative resistance): S1-M1-80 cells relative to S1 parental; for DMF +0.5 μM GF120918: IC50 without / IC50 with 0.5 μM GF120918; for DMF +1.0 μM GF120918: IC50 without / IC50 with 1.0 μM GF120918
Protocol: (§1) Reversal of resistance was determined in cytotoxicity assays using the sulforhodamine staining (Skehan et al. (1990) J. Natl. […] Briefly, cells were harvested and seeded at a density of 2000 cells/well for the colon cancer lines and 4000 cells/well for the breast cancer cell lines in flat-bottom 96-well plates. The cells were incubated for 24 h at 37° C. to allow attachment prior to addition of the drugs. […] Each concentration was tested in triplicate and the controls were done in replicates of eight. Results are representative of from three to six experiments. […] After incubation, the cells were fixed in TCA and stained with sulforhodamine B (SRB) solution (0.4% wt/vol in 1% acetic acid) (Sigma Chemical, St Louis, Mo.). Optical densities were read on a Bio-Rad plate reader (Hercules, Calif.) at an absorbance of 540 nm.

[2] = tested on: S1-B1-20 Pgp-overexpressing cells; assay: as above; type: cell-based, human; conditions: for IC50: Homo sapiens, S1B1-20, 96 h; for RR (relative resistance): S1-B1-20 cells relative to S1 parental; for DMF +0.5 μM GF120918 / DMF +1.0 μM GF120918 / relative resistance: S1-B1-20 cells; for DMF +0.5 μM GF120918: IC50 without / IC50 with 0.5 μM GF120918; for DMF +1.0 μM GF120918: IC50 without / IC50 with 1.0 μM GF120918
Protocol: as §1

MCF-7 parental cells = assay: as above; type: cell-based, human; conditions: for IC50: Homo sapiens, MCF7, 96 h
Protocol: as §1

S1 parental cells = assay: as above; type: cell-based, human; conditions: for IC50: Homo sapiens; for DMF +0.5 μM GF120918 / DMF +1.0 μM GF120918: S1 cells; for DMF +0.5 μM GF120918: IC50 without / IC50 with 0.5 μM GF120918; for DMF +1.0 μM GF120918: IC50 without / IC50 with 1.0 μM GF120918
Protocol: as §1

[3] = tested on: S1 parental cells (low endogenous level of Pgp); assay: Rhodamine efflux assay (flow cytometry); type: cell-based, human
Protocol: The rhodamine and calcein efflux assays were performed as previously described with minor modifications (Lee et al. (1994) Mol. Pharmacol. 46: 627-638; Versantvoort et al. (1995) Int. J. Cancer 63: 855-862.) Suspensions of logarithmic phase cells were obtained from tissue culture flasks by trypsinization and transferred into round-bottom 96-well plates. […] After the efflux period, the cells were washed with DPBS and placed on ice. A FACSort flow cytometer (Becton Dickinson, San Jose, Calif.) with a 488-nm argon laser was used to analyze the samples. Rhodamine 123 or calcein fluorescence was collected after a 530 nm bandpass filter. A minimum of 10,000 events was collected per sample and the samples were gated on forward scatter versus side scatter to exclude clumps and debris; dead cells were excluded based on propidium iodide staining.
To provide confirmation, rhodamine efflux assays were performed. […] After an accumulation and efflux period, rhodamine fluorescence was quantitated by flow cytometric analysis. The results are depicted in FIG. 2. […] PSC 833, a cyclosporin-D analog, was used as a positive control for Pgp antagonism.

MXR (S1-M1-80 cells) = target: T1, MXR (S1-M1-80 cells) (Homo sapiens, UniProt Q9UNQ0, R482G); assay: Rhodamine efflux assay (flow cytometry); type: cell-based
T1 construct: express high levels of a mitoxantrone transporter (Miyake et al. (1999) Cancer Res.59: 8-13); endogenous in cells; host or cells: S1-M1-80 (mitoxantrone-selected subline of S1 colon carcinoma cells)
T1 sequence (Q9UNQ0 1-655 R482G): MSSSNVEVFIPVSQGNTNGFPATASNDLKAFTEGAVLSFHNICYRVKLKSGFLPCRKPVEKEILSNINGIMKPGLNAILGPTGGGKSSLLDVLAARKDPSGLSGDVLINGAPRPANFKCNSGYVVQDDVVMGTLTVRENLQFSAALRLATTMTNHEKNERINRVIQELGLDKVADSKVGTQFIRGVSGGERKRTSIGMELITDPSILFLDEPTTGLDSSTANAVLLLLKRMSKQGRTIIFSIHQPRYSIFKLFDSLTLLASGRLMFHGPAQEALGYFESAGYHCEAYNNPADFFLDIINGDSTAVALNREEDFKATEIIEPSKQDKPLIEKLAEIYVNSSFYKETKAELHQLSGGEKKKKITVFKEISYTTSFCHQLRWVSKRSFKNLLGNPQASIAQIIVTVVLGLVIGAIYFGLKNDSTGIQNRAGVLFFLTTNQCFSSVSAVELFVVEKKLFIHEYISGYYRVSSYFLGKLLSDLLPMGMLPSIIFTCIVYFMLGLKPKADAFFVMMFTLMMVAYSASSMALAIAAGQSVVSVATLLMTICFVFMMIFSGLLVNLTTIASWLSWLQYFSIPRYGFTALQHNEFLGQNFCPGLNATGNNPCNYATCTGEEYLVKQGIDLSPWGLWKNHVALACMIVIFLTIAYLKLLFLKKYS
Protocol: To provide confirmation, rhodamine efflux assays were performed. […] The results are depicted in FIG. 2.

[4] = S1-M1-80 cells, chemotherapy drug without GF120918, 96 h, read-out: IC50
[5] = read-out: IC50 +0.5 μM GF120918, S1-M1-80 cells, with 0.5 μM GF120918, 96 h
[6] = read-out: IC50 +0.5 μM GF120918
[7] = read-out: IC50 +1.0 μM GF120918
[8] = 96 h, read-out: IC50 +0.5 μM GF120918
[9] = 96 h, read-out: IC50 +1.0 μM GF120918

Row | SMILES | IC50 [1, 4] | IC50 [1, 5] | RR (relative resistance) [1] | DMF +0.5 μM GF120918 ([1]; S1-M1-80 cells) | DMF +1.0 μM GF120918 ([1]; S1-M1-80 cells) | IC50 [2, 6] | IC50 [2, 7] | IC50 ([2]; read-out: IC50) | RR (relative resistance) [2] | DMF +0.5 μM GF120918 [2] | DMF +1.0 μM GF120918 [2] | IC50 (S1 parental cells; [8]) | IC50 (S1 parental cells; [9]) | IC50 (S1 parental cells; 96 h, read-out: IC50) | DMF +0.5 μM GF120918 (S1 parental cells) | DMF +1.0 μM GF120918 (S1 parental cells) | relative resistance ([1]; S1-M1-80 cells) | relative resistance [2] | further results
1 | O=C1c2c(O)ccc(O)c2C(=O)c2c(NCCNCCO)ccc(NCCNCCO)c21 [Mitoxantrone] | 222 ± 101 µM | 1.57 ± 0.95 µM | 35806 | 141 | 1850 | 0.015 ± 0.0056 µM | 0.013 ± 0.0066 µM | 0.41 ± 0.61 µM | 66 | 27 | 31 | 0.0053 ± 0.0043 µM | 0.0052 ± 0.0044 µM | 0.0062 ± 0.0047 µM | 1.2 | 1.2 | – | – | IC50 ([1]; read-out: IC50 +1.0 μM GF120918, S1-M1-80 cells, with 1.0 μM GF120918, 96 h): 0.12 ± 0.11 µM; IC50 (MCF-7 parental cells; [6]): 0.0057 ± 0.0073 µM; IC50 (MCF-7 parental cells; [7]): 0.0056 ± 0.0081 µM; IC50 (MCF-7 parental cells; read-out: IC50): 0.025 ± 0.019 µM; DMF (Dose Modifying Factor) +0.5 μM GF120918 (MCF-7 parental cells; MCF-7 cells, IC50 without / IC50 with 0.5 μM GF120918): 4.4; DMF +1.0 μM GF120918 (MCF-7 parental cells; MCF-7 cells, IC50 without / IC50 with 1.0 μM GF120918): 4.4
2 | C/C=C/C[C@@H](C)C(=O)[C@H]1C(=O)N[C@@H](C(C)C)C(=O)N(C)CC(=O)N(C)[C@@H](CC(C)C)C(=O)N[C@@H](C(C)C)C(=O)N(C)[C@@H](CC(C)C)C(=O)N[C@@H](C)C(=O)N[C@H](C)C(=O)N(C)[C@@H](CC(C)C)C(=O)N(C)[C@@H](CC(C)C)C(=O)N(C)[C@@H](C(C)C)C(=O)N1C [PSC 833] | – | – | – | – | – | – | – | – | – | – | – | – | – | – | – | – | – | – | effect on rhodamine accumulation and efflux [3]: small increase in rhodamine accumulation and a decrease in efflux; antagonism of MXR (MXR (S1-M1-80 cells)): not an effective antagonist for MXR
3 | CC(=O)O[C@H]1C(=O)[C@@]2(C)[C@H]([C@H](OC(=O)c3ccccc3)[C@]3(O)C[C@H](OC(=O)[C@H](O)[C@@H](NC(=O)c4ccccc4)c4ccccc4)C(C)=C1C3(C)C)[C@]1(OC(C)=O)CO[C@@H]1C[C@@H]2O [paclitaxel] | – | – | – | – | – | – | – | – | – | – | – | – | – | – | – | – | 1.5 fold | 200 fold | –
4 | CC[C@@]1(O)C(=O)OCc2c1cc1n(c2=O)Cc2cc3c(CN(C)C)c(O)ccc3nc2-1 [topotecan] | 12 ± 5 µM | 2 µM | 334 | 6 | 23 | 0.04 µM | 0.027 ± 0.005 µM | 0.16 ± 0.05 µM | 4.4 | 4 | 5.9 | 0.034 µM | 0.025 ± 0.007 µM | 0.036 ± 0.0085 µM | 1.0 | 1.4 | 334 fold | 4.4 fold | IC50 (S1 parental cells; read-out: IC50): 0.036 µM
